Results taken from ChEMBL document CHEMBL1201862, “PubChem BioAssay data set” (2004).
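Compound exposure: 48 hours, 5 concentrations, 96-well plates. GI50 = concentration required for 50% inhibition of growth.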 Activity calls are given as the source filed them. Cut-off read from the data, not from the text of the source: active = GI50 up to about 1.1 µM and inactive = higher.

Key:
Experiment in all cases: NCI-60 cell line screen, 48 h
[1] = test system: 786-0
[2] = test system: A498
[3] = test system: A549
[4] = test system: ACHN
[5] = test system: BT-549
[6] = test system: CAKI-1
[7] = test system: CCRF-CEM
[8] = test system: COLO 205
[9] = test system: DU-145
[10] = test system: EKVX
[11] = test system: HCC 2998
[12] = test system: HCT-116
[13] = test system: HCT-15
[14] = test system: HL-60
[15] = test system: HOP-62
[16] = test system: HOP-92
[17] = test system: HT-29
[18] = test system: Hs-578T
[19] = test system: IGROV-1
[20] = test system: K562
[21] = test system: KM12
[22] = test system: LOX IMVI
[23] = test system: M14
[24] = test system: MCF7
[25] = test system: MDA-MB-231
[26] = test system: MDA-MB-435
[27] = test system: MDA-N
[28] = test system: MOLT-4
[29] = test system: Malme-3M
[30] = test system: NCI-H226
[31] = test system: NCI-H23
[32] = test system: NCI-H460
[33] = test system: NCI-H522
[34] = test system: NCI/ADR-RES
[35] = test system: OVCAR-3
[36] = test system: OVCAR-4
[37] = test system: OVCAR-5
[38] = test system: OVCAR-8
[39] = test system: PC-3
[40] = test system: RPMI-8226
[41] = test system: RXF 393
[42] = test system: SF-268
[43] = test system: SF-295
[44] = test system: SF-539
[45] = test system: SK-MEL-28
[46] = test system: SK-MEL-2
[47] = test system: SK-MEL-5
[48] = test system: SK-OV-3
[49] = test system: SN12C
[50] = test system: SNB-19
[51] = test system: SNB-75
[52] = test system: SR
[53] = test system: SW-620
[54] = test system: T47D
[55] = test system: TK-10
[56] = test system: U-251
[57] = test system: UACC-257
[58] = test system: UACC-62
[59] = test system: UO-31

For `C=C1CCC(O)C/C1=C/C=C1\CCCC2(C)C1CCC2C(C)CCCC(C)C` (stereo not drawn), the GI50 [1] was 16.7 µM (inactive), the GI50 [2] was 21.3 µM (inactive) and the GI50 [3] was 19.6 µM (inactive). For the same molecule, the GI50 [4] was 16 µM (inactive), the GI50 [5] was 19.5 µM (inactive) and the GI50 [6] was 19.8 µM (inactive). For the same molecule, the GI50 [7] was 24.5 µM (inactive), the GI50 [8] was 19 µM (inactive) and the GI50 [9] was 20.9 µM (inactive). For the same molecule, the GI50 [10] was 19 µM (inactive), the GI50 [11] was 21.2 µM (inactive) and the GI50 [12] was 15.2 µM (inactive). The GI50 [13] was 17.1 µM, the GI50 [14] was 23.2 µM (inactive) and the GI50 [15] was 19.5 µM (inactive). For the same molecule, the GI50 [16] was 17.7 µM (inactive), the GI50 [17] was 15.3 µM (inactive) and the GI50 [18] was 17.6 µM (inactive). For the same molecule, the GI50 [19] was 17.3 µM (inactive), the GI50 [20] was 21.2 µM (inactive) and the GI50 [21] was 20.6 µM (inactive). The GI50 [22] was 17.9 µM (inactive), the GI50 [23] was 18 µM (inactive) and the GI50 [24] was 12.9 µM (inactive). For the same molecule, the GI50 [25] was 19.9 µM (inactive), the GI50 [26] was 16.3 µM (inactive) and the GI50 [27] was 18 µM (inactive). For the same molecule, the GI50 [28] was 20.2 µM (inactive), the GI50 [29] was 18 µM (inactive) and the GI50 [30] was 16 µM (inactive). The GI50 [31] was 18.5 µM (inactive), the GI50 [32] was 20.4 µM (inactive) and the GI50 [33] was 17.5 µM (inactive). The GI50 [34] was 18.2 µM (inactive), the GI50 [35] was 18.5 µM (inactive) and the GI50 [36] was 18.1 µM (inactive). The GI50 [37] was 20.3 µM (inactive), the GI50 [38] was 18.1 µM (inactive) and the GI50 [39] was 18.8 µM (inactive). For the same molecule, the GI50 [40] was 23.8 µM (inactive), the GI50 [41] was 18.5 µM (inactive) and the GI50 [42] was 23 µM (inactive). The GI50 [43] was 19.6 µM (inactive), the GI50 [44] was 20.1 µM (inactive) and the GI50 [45] was 16.6 µM (inactive). The GI50 [46] was 18.6 µM (inactive), the GI50 [47] was 19.4 µM (inactive) and the GI50 [48] was 22.8 µM (inactive). For the same molecule, the GI50 [49] was 16.6 µM (inactive), the GI50 [50] was 19.1 µM (inactive) and the GI50 [51] was 17.4 µM (inactive). The GI50 [52] was 18.5 µM (inactive), the GI50 [53] was 16.7 µM (inactive) and the GI50 [54] was 19 µM (inactive). The GI50 [55] was 12.3 µM (inactive), the GI50 [56] was 18.6 µM (inactive) and the GI50 [57] was 17 µM (inactive). For the same molecule, the GI50 [58] was 18.8 µM (inactive) and the GI50 [59] was 14.6 µM (inactive).
`C/N=C(N)/N=C(\N)Nc1cc2ccccc2c2ccccc12` was tested, and the GI50 [1] was 12.4 µM (inactive), the GI50 [2] was 11.2 µM (inactive) and the GI50 [3] was 14.2 µM (inactive). The GI50 [4] was 13.5 µM (inactive), the GI50 [5] was 15.1 µM (inactive) and the GI50 [6] was 14.5 µM (inactive). For the same molecule, the GI50 [7] was 7.74 µM (inactive), the GI50 [8] was 13.7 µM (inactive) and the GI50 [9] was 15.2 µM (inactive). The GI50 [10] was 16.3 µM (inactive), the GI50 [11] was 2.44 µM (inactive) and the GI50 [12] was 12.9 µM (inactive). The GI50 [13] was 16.7 µM, the GI50 [14] was 4.06 µM (inactive) and the GI50 [15] was 17.5 µM (inactive). For the same molecule, the GI50 [16] was 14.9 µM (inactive), the GI50 [17] was 15 µM (inactive) and the GI50 [18] was 16.9 µM (inactive). The GI50 [19] was 17.9 µM (inactive), the GI50 [20] was 19.1 µM (inactive) and the GI50 [21] was 17.1 µM (inactive). For the same molecule, the GI50 [22] was 13 µM (inactive), the GI50 [23] was 17 µM (inactive) and the GI50 [24] was 13.2 µM (inactive). For the same molecule, the GI50 [25] was 13.3 µM (inactive), the GI50 [26] was 15.9 µM (inactive) and the GI50 [27] was 13.9 µM (inactive). The GI50 [28] was 10.4 µM (inactive), the GI50 [29] was 15 µM (inactive) and the GI50 [30] was 20.7 µM (inactive). The GI50 [31] was 17.1 µM (inactive), the GI50 [32] was 11.1 µM (inactive) and the GI50 [33] was 13.1 µM (inactive). The GI50 [34] was 20.6 µM (inactive), the GI50 [35] was 16.7 µM (inactive) and the GI50 [36] was 14.7 µM (inactive). For the same molecule, the GI50 [37] was 17.5 µM (inactive), the GI50 [38] was 16.8 µM (inactive) and the GI50 [39] was 15.8 µM (inactive). The GI50 [40] was 15.5 µM (inactive), the GI50 [41] was 14.9 µM (inactive) and the GI50 [42] was 13.4 µM (inactive). For the same molecule, the GI50 [43] was 17.1 µM (inactive), the GI50 [44] was 15.2 µM (inactive) and the GI50 [45] was 17.8 µM (inactive). The GI50 [46] was 18 µM (inactive), the GI50 [47] was 16.5 µM (inactive) and the GI50 [48] was 16.3 µM (inactive). For the same molecule, the GI50 [49] was 12.5 µM (inactive), the GI50 [50] was 15.8 µM (inactive) and the GI50 [51] was 13 µM (inactive). The GI50 [52] was 13.8 µM (inactive), the GI50 [53] was 16.6 µM (inactive) and the GI50 [54] was 14.8 µM (inactive). The GI50 [55] was 13 µM (inactive), the GI50 [56] was 15.2 µM (inactive) and the GI50 [57] was 16.7 µM (inactive). For the same molecule, the GI50 [58] was 14.9 µM (inactive) and the GI50 [59] was 11.9 µM (inactive).
